The text below walks through data of patent US12454534B2, “Pyrrolo[2,3-b]pyrazines as HPK1 inhibitor and the use thereof” (BEIGENE, LTD., priority 2019, dated 2025).

pIC50: −log10 of the molar value.

The experiment addresses T1, HPK1 kinase (aa1-346, Life Technologies) (Homo sapiens, UniProt Q92918).
T1 construct: HPK1 kinase (aa1-346, Life Technologies); purchased Life Technologies
T1 sequence (Q92918 1-346): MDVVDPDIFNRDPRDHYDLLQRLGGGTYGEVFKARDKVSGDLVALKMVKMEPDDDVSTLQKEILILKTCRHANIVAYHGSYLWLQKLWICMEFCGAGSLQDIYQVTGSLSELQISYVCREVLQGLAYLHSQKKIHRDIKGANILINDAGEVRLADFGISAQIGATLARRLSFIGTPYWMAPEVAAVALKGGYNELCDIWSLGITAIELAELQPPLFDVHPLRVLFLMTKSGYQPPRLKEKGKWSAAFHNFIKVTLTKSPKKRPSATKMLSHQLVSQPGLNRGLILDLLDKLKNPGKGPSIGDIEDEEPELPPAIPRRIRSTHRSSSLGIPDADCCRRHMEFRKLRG
The experiment is described as follows: HPK1 Kinase Activity Assay at 1 mM ATP (TR-FRET). The experiment is classed as biochemical. The note with it: HPK1 40 nM, read-out: Enzymatic activity IC50. The procedure:
HPK1 Kinase Activity Assay at 1 mM ATP
Compounds disclosed herein were tested for inhibition of HPK1 kinase (aa1-346, Life Technologies) activity in assays based on the time-resolved fluorescence-resonance energy transfer (TR-FRET) methodology. The assays were carried out in 384-well low volume black plates in a reaction mixture containing HPK1 kinase (40 nM), 1 mM ATP, 0.5 μM STK1 substrate and 0-10 μM compound in buffer containing 50 mM HEPES, 0.01% BSA, 0.1 mM Orthovanadate, 10 mM MgCl2, 1 mM DTT, pH=7.0, 0.005% Tween-20. The kinase was incubated with the compounds disclosed herein or DMSO for 60 minutes at room temperature and the reaction was initiated by the addition of ATP and STK1 substrate. After reaction at room temperature for 120 minutes, an equal volume of stop/detection solution was added according to the manufacturer's instruction (CisBio). The stop/detection solution contained STK Antibody-Cryptate and XL665-conjugated streptavidin in Detection Buffer. The TR-FRET signals (ratio of fluorescence emission at 665 nm over emission at 620 nm with excitation at 337 nm wavelength) were recorded on a PHERAstar FS plate reader (BMG Labtech). Phosphorylation of STK1 substrate led to the binding of STK Antibody-Cryptate to the biotinylated STK1 substrate, which places fluorescent donor (Eu^3+ cryptate) in close proximity to the accepter (Streptavidin-XL665), thus resulting in a high degree of fluorescence resonance energy transfer. The inhibition of HPK1 in presence of increasing concentrations of compounds was calculated based on the ratio of fluorescence at 665 nm to that at 620 nm. The IC50 for each compound was derived from fitting the data to the four-parameter logistic equation by Graphpad Prism software.
In general terms: Time-resolved FRET reads energy transfer from a long-lived donor to a nearby acceptor.
What is called pIC50 is the negative decadic logarithm of the IC50, by convention in mol/L. In the case of `COCCCNC(=O)CN1CCc2c(C)cc(-c3cnc4[nH]cc(-c5ccc(C(=O)N(C)C)c(C)c5)c4n3)cc2C1` [Example 52, 4-(2-(2-(2-((3-methoxypropyl)amino)-2-oxoethyl)-5-methyl-1,2,3,4-tetrahydroisoquinolin-7-yl)-5H-pyrrolo[2,3-b]pyrazin-7-yl)-N, N, 2-trimethylbenzamide], the pIC50 is 7.13.
For `Cc1cc(-c2c[nH]c3ncc(-c4cc(C)c5c(c4)CN(CCC(=O)N[C@@H]4CCCOC4)CC5)nc23)ccc1C(=O)N(C)C` [Example 53, (R)—N, N, 2-trimethyl-4-(2-(5-methyl-2-(3-oxo-3-((tetrahydro-2H-pyran-3-yl)amino)propyl)-1,2,3,4-tetrahydroisoquinolin-7-yl)-5H-pyrrolo[2,3-b]pyrazin-7-yl)benzamide], the pIC50 was 7.11.
As for `Cc1cc(-c2cnc3[nH]cc(-c4ccc(C(=O)N(C)C[C@@H]5CCOC5)cc4)c3n2)cc2c1CCN(CCN1CCC(C)(O)CC1)C2` [Example 36, (S)-4-(2-(2-(2-(4-hydroxy-4-methylpiperidin-1-yl)ethyl)-5-methyl-1,2,3,4-tetrahydroisoquinolin-7-yl)-5H-pyrrolo[2,3-b]pyrazin-7-yl)-N-methyl-N-((tetrahydrofuran-3-yl)methyl)benzamide], the figure is 7.41.
Consider `Cc1cc(-c2c[nH]c3ncc(-c4cc(C)c5c(c4)CN(CCC(=O)N[C@H]4CC[C@H](O)CC4)CC5)nc23)ccc1C(=O)N(C)C` [Example 23, 4-(2-(2-(3-((trans-4-hydroxycyclohexyl)amino)-3-oxopropyl)-5-methyl-1,2,3,4-tetrahydroisoquinolin-7-yl)-5H-pyrrolo[2,3-b]pyrazin-7-yl)-N, N, 2-trimethylbenzamide], for which the negative logarithm of the IC50 (pIC50) was 6.91.
`COc1cc(-c2cnc3[nH]cc(-c4cc(F)c(C(=O)N(C)C[C@@H]5CCOC5)c(F)c4)c3n2)cc2c1CN(C)CC2` [Example 7A, (S)-2,6-difluoro-4-(2-(8-methoxy-2-methyl-1,2,3,4-tetrahydroisoquinolin-6-yl)-5H-pyrrolo[2,3-b]pyrazin-7-yl)-N-methyl-N-((tetrahydrofuran-3-yl)methyl)benzamide]: the pIC50 is 7.47.
As for `Cc1cc(-c2cnc3[nH]cc(-c4ccc(C(=O)N(C)C)cc4)c3n2)cc2c1CCN(CCC(=O)NCCN1CCN(C)CC1)C2` [Example 49, N, N-dimethyl-4-(2-(5-methyl-2-(3-((2-(4-methylpiperazin-1-yl)ethyl)amino)-3-oxopropyl)-1,2,3,4-tetrahydroisoquinolin-7-yl)-5H-pyrrolo[2,3-b]pyrazin-7-yl)benzamide], the figure is 7.17.
Turning to `CN[C@H]1CCN(C(=O)c2ccc(-c3c[nH]c4ncc(-c5cc6c(c(OC)c5)CCN(C)C6)nc34)cc2)C1` [Example 18, (S)-(4-(2-(5-methoxy-2-methyl-1,2,3,4-tetrahydroisoquinolin-7-yl)-5H-pyrrolo[2,3-b]pyrazin-7-yl)phenyl) (3-(methylamino)pyrrolidin-1-yl)methanone], the pIC50 is 8.15.
Regarding `CN[C@H]1CCN(C(=O)c2ccc(-c3c[nH]c4ncc(-c5cc(C)c6c(c5)CN(C)CC6)nc34)cc2)C1` [Example 14, (S)-(4-(2-(2,5-dimethyl-1,2,3,4-tetrahydroisoquinolin-7-yl)-5H-pyrrolo[2,3-b]pyrazin-7-yl)phenyl) (3-(methylamino)pyrrolidin-1-yl)methanone], the pIC50 is 7.92.
The same measure for `[2H]C([2H])([2H])N(C(=O)c1ccc(-c2c[nH]c3ncc(-c4cc(C)c5c(c4)CCN(C)C5)nc23)cc1C)C([2H])([2H])[2H]` [Example 128, 4-(2-(2,8-dimethyl-1,2,3,4-tetrahydroisoquinolin-6-yl)-5H-pyrrolo[2,3-b]pyrazin-7-yl)-2-methyl-N,N-bis(methyl-d3)benzamide]: 7.68.
In the case of `COc1cc(-c2cnc3[nH]cc(-c4cc(F)c(C(=O)N(C)C[C@H]5CCOC5)c(F)c4)c3n2)cc2c1CN(C)CC2` [Example 7B, (R)-2,6-difluoro-4-(2-(8-methoxy-2-methyl-1,2,3,4-tetrahydroisoquinolin-6-yl)-5H-pyrrolo[2,3-b]pyrazin-7-yl)-N-methyl-N-((tetrahydrofuran-3-yl)methyl)benzamide], the pIC50 is 7.51.
As for `Cc1cc(-c2c[nH]c3ncc(-c4cc(C)c5c(c4)CN(CCC(=O)NCCCO)CC5)nc23)ccc1C(=O)N(C)C` [Example 46, 4-(2-(2-(3-((3-hydroxypropyl)amino)-3-oxopropyl)-5-methyl-1,2,3,4-tetrahydroisoquinolin-7-yl)-5H-pyrrolo[2,3-b]pyrazin-7-yl)-N, N, 2-trimethylbenzamide], the figure is 7.19; as for `Cc1cc(-c2cnc3[nH]cc(-c4ccc(C(=O)N(C)C[C@@H]5CCOC5)cc4)c3n2)cc2c1CCN(CCN1CCOCC1)C2` [Example 51, (S)—N-methyl-4-(2-(5-methyl-2-(2-morpholinoethyl)-1,2,3,4-tetrahydroisoquinolin-7-yl)-5H-pyrrolo[2,3-b]pyrazin-7-yl)-N-((tetrahydrofuran-3-yl)methyl)benzamide], 7.44; as for `Cc1cc(-c2cnc3[nH]cc(-c4ccc(C(=O)N(C)CCC#N)cc4)c3n2)cc2c1CCN(C)C2` [Example 59, N-(2-cyanoethyl)-4-(2-(2,5-dimethyl-1,2,3,4-tetrahydroisoquinolin-7-yl)-5H-pyrrolo[2,3-b]pyrazin-7-yl)-N-methylbenzamide], 7.80.
The same measure for `Cc1cc(-c2cnc3[nH]cc(-c4ccc(C(=O)N(C)C[C@H](C)O)cc4)c3n2)cc2c1CCN(CCN1CCOCC1)C2` [Example 13, (S)—N-(2-hydroxypropyl)-N-methyl-4-(2-(5-methyl-2-(2-morpholinoethyl)-1,2,3,4-tetrahydroisoquinolin-7-yl)-5H-pyrrolo[2,3-b]pyrazin-7-yl)benzamide]: 7.35.
As for `Cc1cc(-c2c[nH]c3ncc(-c4cc(C)c5c(c4)CN(C)CC5)nc23)ccc1C(=O)N1CC(O)C1` [Example 17, (4-(2-(2,5-dimethyl-1,2,3,4-tetrahydroisoquinolin-7-yl)-5H-pyrrolo[2,3-b]pyrazin-7-yl)-2-methylphenyl) (3-hydroxyazetidine-1-yl)methanone], the figure is 7.62; as for `Cc1cc(-c2c[nH]c3ncc(-c4cc(C)c5c(c4)CN(CCC(=O)N[C@H]4CC[C@@H](O)CC4)CC5)nc23)ccc1C(=O)N(C)C` [Example 41, 4-(2-(2-(3-((cis-4-hydroxycyclohexyl)amino)-3-oxopropyl)-5-methyl-1,2,3,4-tetrahydroisoquinolin-7-yl)-5H-pyrrolo[2,3-b]pyrazin-7-yl)-N, N, 2-trimethylbenzamide], 7.27.
On to `Cc1cc(-c2cnc3[nH]cc(-c4ccc(C(=O)N(C)C)cc4)c3n2)cc2c1CCN(CCC(=O)NC1CC1)C2` [Example 47, 4-(2-(2-(3-(cyclopropylamino)-3-oxopropyl)-5-methyl-1,2,3,4-tetrahydroisoquinolin-7-yl)-5H-pyrrolo[2,3-b]pyrazin-7-yl)-N, N-dimethylbenzamide], for which the negative-log IC50 (pIC50) is 7.66.
As for `Cc1cc(-c2c[nH]c3ncc(-c4cc(C)c5c(c4)CN(CCC(=O)NCCN4CCN(C)CC4)CC5)nc23)ccc1C(=O)N(C)C` [Example 42, N, N, 2-trimethyl-4-(2-(5-methyl-2-(3-((2-(4-methylpiperazin-1-yl)ethyl)amino)-3-oxopropyl)-1,2,3,4-tetrahydroisoquinolin-7-yl)-5H-pyrrolo[2,3-b]pyrazin-7-yl)benzamide], the figure is 7.07; as for `Cc1cc(-c2c[nH]c3ncc(-c4cc(C)c5c(c4)CN(CCC(=O)NCC4(O)CC4)CC5)nc23)ccc1C(=O)N(C)C` [Example 32, 4-(2-(2-(3-((1-hydroxycyclopropyl)methylamino)-3-oxopropyl)-5-methyl-1,2,3,4-tetrahydroisoquinolin-7-yl)-5H-pyrrolo[2,3-b]pyrazin-7-yl)-N, N, 2-trimethylbenzamide], 7.15; as for `Cc1cc(-c2c[nH]c3ncc(-c4cc(C)c5c(c4)CN(C)CC5)nc23)ccc1C(=O)N(C)C[C@@H](C)O` [Example 4, (R)-4-(2-(2,5-dimethyl-1,2,3,4-tetrahydroisoquinolin-7-yl)-5H-pyrrolo[2,3-b]pyrazin-7-yl)-N-(2-hydroxypropyl)-N, 2-dimethylbenzamide], 7.04.
As for `CNC(=O)CCN1CCc2c(C)cc(-c3cnc4[nH]cc(-c5ccc(C(=O)N(C)C)c(C)c5)c4n3)cc2C1` [Example 25, N, N, 2-trimethyl-4-(2-(5-methyl-2-(3-(methylamino)-3-oxopropyl)-1,2,3,4-tetrahydroisoquinolin-7-yl)-5H-pyrrolo[2,3-b]pyrazin-7-yl)benzamide], the figure is 7.31.
